In publication PMC6190683 (Bioorganic & medicinal chemistry letters, 2017):

Target: Mtb NadE (Mycobacterium tuberculosis, UniProt P9WJJ3)
Assay: ammonia-dependent Mtb NadE inhibition assay
Assay type: biochemical

Chain of Mtb NadE (P9WJJ3 whole entry): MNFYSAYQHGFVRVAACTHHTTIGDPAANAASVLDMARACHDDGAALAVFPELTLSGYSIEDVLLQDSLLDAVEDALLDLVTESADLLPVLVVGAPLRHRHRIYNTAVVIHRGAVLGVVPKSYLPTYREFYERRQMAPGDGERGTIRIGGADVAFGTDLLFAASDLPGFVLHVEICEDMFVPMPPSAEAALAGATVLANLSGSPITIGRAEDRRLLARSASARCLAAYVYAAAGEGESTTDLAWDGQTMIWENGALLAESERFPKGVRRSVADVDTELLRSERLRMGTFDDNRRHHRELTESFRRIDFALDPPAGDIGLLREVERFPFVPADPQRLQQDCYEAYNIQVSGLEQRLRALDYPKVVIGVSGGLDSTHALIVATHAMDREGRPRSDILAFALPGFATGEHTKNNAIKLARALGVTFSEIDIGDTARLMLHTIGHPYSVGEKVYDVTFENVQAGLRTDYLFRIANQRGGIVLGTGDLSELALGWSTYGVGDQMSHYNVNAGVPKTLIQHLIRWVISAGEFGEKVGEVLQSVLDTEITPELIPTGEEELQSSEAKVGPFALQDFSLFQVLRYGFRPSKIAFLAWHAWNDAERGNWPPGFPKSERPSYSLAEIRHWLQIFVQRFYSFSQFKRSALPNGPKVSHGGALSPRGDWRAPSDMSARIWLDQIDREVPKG

Structure (SMILES)	IC50 [µM]
COc1ccc(NS(=O)(=O)c2ccc(NC(=O)Nc3ccc([N+](=O)[O-])cc3)cc2)cc1 [Compound 4d]	> 200
O=C(Nc1ccc([N+](=O)[O-])cc1)Nc1ccc(S(=O)(=O)Nc2ccc([N+](=O)[O-])cc2)cc1 [Compound 4f]	> 200
O=C(Nc1ccc([N+](=O)[O-])cc1)Nc1ccc(S(=O)(=O)Nc2cccc(C(F)(F)F)c2)cc1 [Compound 4h]	> 200
O=C(Nc1ccc([N+](=O)[O-])cc1)Nc1ccc(S(=O)(=O)Nc2ccccc2)cc1 [Compound 4l]	> 200
